According to paper PMC9597602, “Metal Complexes as Antifungals? From a Crowd-Sourced Compound Library to the First In Vivo Experiments” (JACS Au, 2022):
Entries after “also recorded” stand apart in the source; their conditions may differ.

Tests used:
[1] = system: Cryptococcus neoformans H99 ATCC 208821 type strain; assay: Antifungal MIC assay; assay type: cell-based; conditions: for MIC Cryptococcus neoformans ATCC 208821 / MIC / MIC50 Cryptococcus neoformans ATCC 208821: extended panel; for MIC Cryptococcus neoformans ATCC 208821 / MIC: second batch, ≥80 or ≥50% inhibition; for MIC Cn: initial CO-ADD dose-response screening, ≥80% growth inhibition; for MIC: read-out: MIC* Cryptococcus neoformans ATCC 208821; for MIC50 Cryptococcus neoformans ATCC 208821: 50% inhibition, MIC score 2
How it was run: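 MIC is the lowest concentration at which growth fell by at least 80% (optically clear to slightly hazy, CLSI M27 score 0–1). Cells in YNB at a final 2.5 × 10^3 CFU/mL were incubated with compound for 36 h at 35 °C, unshaken.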

G. mellonella larvae = assay: Galleria mellonella in vivo toxicity assay; conditions: 10 μL of the highest concentration injected, monitored 6 days
Method: Based on criteria of overall antifungal activity, cytotoxicity, and hemolysis as well as compound availability, we selected compounds Co1, Ag2, Eu1, Ir1, Pt1, Pt2, Pt4, Pt5, Au1, Au2, and Au4 to conduct a preliminary in vivo toxicity assay. […] The compounds were dissolved in DMSO and diluted to the highest possible final concentration (Table 3). The larvae were then monitored for 6 days for survival and health using the G. mellonella Health Index Scoring System.[111] […] For the other compounds, no detrimental effects could be observed in the larvae over the monitoring period. […] Nevertheless, factors such as the metabolism, excretion, and/or accumulation of the various metal complexes and their metabolites will still need to be studied more rigorously in rodent models if they are to be advanced into the preclinical pipeline.
The toxicity of compounds was tested in vivo using the G. mellonella model using our previously described methods,[61] Briefly, G. mellonella larvae were reared in a controlled environmental room at Macquarie University, Sydney, Australia, at 30 °C and 65% humidity with a 12-h light/dark cycle. Larvae (200–250 mg) were individually injected with 10 μL of chemical into the last right pro-leg using a 100 μL syringe (Hamilton Ltd.). Each compound was dissolved in DMSO at the maximum concentration given in Table 3 and also diluted in water to final concentrations of 100, 10, and 1 μM. We injected five larvae in triplicate for each of the four dilutions for each compound. Larvae injected with different dilutions of DMSO (10^–1, 10^–2, and 10^–3) were included as negative controls. Following injection, the larvae were incubated at 30 °C and monitored every 24 h for 6 days. Larval performance was assessed according to the G. mellonella Health Index Scoring System.[111] The experiments were repeated over three separate days for biological triplicates.

[2] = system: Candida glabrata ATCC 90030 NCCLS 84; assay: Antifungal MIC assay, extended panel; assay type: cell-based; conditions: extended panel; 50% inhibition, MIC score 2
[3] = system: Candida tropicalis ATCC 750; assay: Antifungal MIC assay, extended panel; assay type: cell-based; conditions: extended panel; 50% inhibition, MIC score 2
[4] = system: Cryptococcus deuterogattii CBS7750 VGII; Serotype B; assay: Antifungal MIC assay, extended panel; assay type: cell-based; conditions: extended panel; 50% inhibition, MIC score 2
[5] = system: Cryptococcus deuterogattii ATCC 32609 VGII; assay: Antifungal MIC assay, extended panel; assay type: cell-based; conditions: extended panel; 50% inhibition, MIC score 2
[6] = Stability by NMR / UV-vis; assay type: physicochemical; conditions: for stability in DMSO solution, NMR or UV–vis spectra: after 24 h; for stability of solid samples, NMR spectra: room temperature, protected from light, 2 years
Method: The ligands for these complexes (Ligand-Ag1 and Ligand-Ag2 in the SI) were originally studied for their solvatochromism and were later coordinated with silver to investigate their potential antimicrobial activity.[84] The carboxylate ion is able to coordinate to silver with monodentate, chelating, and/or bridging modes. […] The stability of complexes Ag1 and Ag2 was assessed.
One concern with Pt1 is its potential stability under biological conditions. […] Future work will be aimed toward more comprehensive examinations of the chemical and biological stability of these and related compounds, as well as investigations into their mode of action.

C. albicans (ATCC 90028) [7] = assay: Galleria mellonella infection (survival) assay; assay type: in vivo, Candida albicans in Galleria mellonella larvae; conditions: G. mellonella inoculated with C. albicans, 10 μL compound solution, 5 days, vs untreated control
Method: In an initial survival assay, G. mellonella larvae were inoculated with C. albicans (ATCC 90028). The larvae were then injected with 10 μL of the compound solution, and their survival was monitored for the next 5 days. Fluconazole and 10% DMSO injections were used as controls.
The globally available strains for C. albicans and C. neoformans, namely, ATCC 90028 and H99, respectively, were used to assess the antifungal potential of the panel of cobalt complex compounds in the G. mellonella insect model. Each strain was cultured on Sabouraud dextrose agar (SDA) for 24–48 h at 27 °C prior to inoculation. Yeast colonies were then suspended in a phosphate-buffered saline solution (PBS), and cells’ concentrations were adjusted using a Neubauer counting chamber to 5 × 10^7 cells for ATCC 90028 and 1 × 10^8 cells for H99. Compounds were prepared by dissolving in 100% dimethylsulfoxide (DMSO) to 4 or 10 mM depending on compound solubility before being further diluted with water to 0.4 or 1 mM for injection into larvae.
Each group of larvae was subsequently incubated at 37 °C for 2 h in 90 mm Petri dishes. After incubation, larvae were injected with 10 μL of the compound into the last right pro-leg and returned to Petri dishes to incubate at 37 °C for 5 days. In addition to the panel of metal compounds, fluconazole (FLC) was included as a positive control (1 and 0.4 mM) and reference antifungal. Larvae inoculated with just the fungal strains and the fungal strains with 10% DMSO were also included as comparison groups. Larvae injected concurrently with PBS instead of fungal inoculum and compounds were used as negative controls. All larvae were checked daily for survival.

C. albicans (ATCC 90028) [8] = assay: Galleria mellonella infection (log CFU reduction) assay; assay type: in vivo, Candida albicans in Galleria mellonella larvae; conditions: 1 mM, 10 μL; Pt1 19 mg/kg, Pt2 28 mg/kg, fluconazole 12 mg/kg; 24 h at 37 °C; vs 10% DMSO control
Method: To quantify the possible protective effect of Pt1 and Pt2 in G. mellonella challenged with C. albicans, we conducted a CFU reduction assay with these compounds. Briefly, G. mellonella larvae were inoculated with C. albicans (ATCC 90028) and incubated for 2 h at 37 °C. The larvae were then injected with 10 μL of the corresponding compound solution (1 mM) or control (same concentration and injection volume) and incubated for 24 h at 37 °C. The larvae were then anesthetized, macerated, and serially diluted onto SDA (Sabouraud dextrose agar) plates. After 48 h of incubation, the CFUs were counted.
A log CFU reduction assay was conducted for two compounds and two control groups. […] Fluconazole (1 mM) and 10% DMSO were used once again as the control groups. Fifteen G. mellonella larvae (200–250 mg) per test group were selected and inoculated with 10 μL of C. albicans at a concentration of 5 × 10^7 cells/mL and incubated on 90 mm Petri dishes in groups of five larvae for 2 h at 37 °C. Larvae were then subsequently injected with 10 μL of the corresponding test compound or control and returned to Petri dishes to incubate for 24 h at 37 °C.
Larvae were then anesthetized on ice for 5 to 10 min before being placed in individual prefilled 2 mL tubes with 3.0 mm diameter zirconium beads with 1000 μL of PBS. They were then macerated briefly using the BeadBug 6 Homogenizer (Benchmark Scientific, USA) in two 45 s intervals at 4350 rpm. After homogenization, serial dilutions of 1:100, 1:1000, and 1:10,000 were then made for each larva/tube, and 100 μL of the dilution was spread plated onto SDA plates with 50 μg/mL chloramphenicol. Plates were then incubated at 27 °C for 48 h before CFUs were counted.
A one-way ANOVA was conducted to compare the CFU counts for Pt1, Pt2, and both controls. After a significant difference was observed between the groups, a subsequent Tukey’s pairwise test was used to compare the individual test groups with each other.

MRSA = system: MRSA; design: method as in PMID 34018686; conditions: G. mellonella infected with MRSA; cited from earlier work

SMILES	MIC Cryptococcus neoformans ATCC 208821 [1]	MIC Cn [1]	toxicity (G. mellonella larvae)	MIC [1]	MIC50 Cryptococcus neoformans ATCC 208821 [1]	MIC50 Candida glabrata ATCC 90030 [2]	MIC50 Candida tropicalis ATCC 750 [3]	MIC50 Cryptococcus deuterogattii CBS7750 [4]	MIC50 Cryptococcus deuterogattii ATCC 32609 [5]	stability in DMSO solution, NMR or UV–vis spectra [6]	stability of solid samples, NMR spectra [6]	larva survival (C. albicans (ATCC 90028) [7])	reduction in CFUs (C. albicans (ATCC 90028) [8])	stability in DMSO, 1H NMR spectrum ([6]; 7 days at room temperature)	reduction in bacterial load (MRSA)
CC(C)C([O][Pt][Cl])C1=CCCC=CCC1 (centres unmarked) [Pt4]	≤780 to 1560 nM	1250 nM	nontoxic												
CC(=NN=C(N)[S-])C(C)=NN=C(N)[S-].O=[N+]([O-])[O-].[Co+3].c1c[nH]cn1.c1c[nH]cn1 [Co1]	390 to 780 nM	0.5 µg/mL	nontoxic												
Cc1ccc2ccc3ccc(C)nc3c2n1.Cc1ccc2ccc3ccc(C)nc3c2n1.O=C([O][Eu]([O]C(=O)c1ccccc1F)[O]C(=O)c1ccccc1F)c1ccccc1F [Eu1]			nontoxic	≤6 nM	≤ 6 nM	12 to 49 nM	≤6 to 49 nM	24 to 98 nM	24 nM						
COc1ccc(/C=C/C2=NN(c3ccc(C(=O)[O][Ag])cc3)C(c3ccc(OC)c(OC)c3)C2)cc1OC.COc1ccc(/C=C/C2=NN(c3ccc(C(=O)[O][Ag])cc3)C(c3ccc(OC)c(OC)c3)C2)cc1OC (racemic) [Ag1, (Ε)-1-(4-Carboxyphenyl)-5-(3,4-dimethoxyphenyl)-3-(3,4-dimethoxystyryl)-2-pyrazoline silver(I) complex]		≤0.25 µg/mL		≤6 nM	≤ 6 nM	≤ 6 nM	≤ 6 nM	≤ 6 nM	≤6 to 24 nM	no changes	identical NMR spectra				
C1=CCCC=CCC1.[I][Pt][I] [Pt2]	1560 to 3130 nM	1250 nM	nontoxic									significant larva survival; also recorded: showed some efficacy	CFUs comparable to the DMSO control		
O=C([O][Ag])c1ccc(N2N=C(/C=C/C=C/c3ccccc3)CC2/C=C/c2ccccc2)cc1.O=C([O][Ag])c1ccc(N2N=C(/C=C/C=C/c3ccccc3)CC2/C=C/c2ccccc2)cc1 (racemic) [Ag2, 1-(4-Carboxyphenyl)-3-{(1E,3E)-4-phenylbuta-1,3-dien-1-yl}-5-{(E)-styryl}-2-pyrazoline silver(I) complex]	≤6 to 98 nM	≤0.25 µg/mL	nontoxic		≤6 to 98 nM	6 to 195 nM	≤6 to 49 nM	≤6 to 49 nM	≤6 to 98 nM	no changes	identical NMR spectra				
C1=CCCC=CCC1.[Cl][Pt][Cl] [Pt1]	1560 to 3130 nM	2500 nM	nontoxic									significant larva survival; also recorded: showed some efficacy	0.7 log10	no changes of the ^1H NMR spectrum	did not elicit a significant reduction in bacterial load
